Our source for the IC50 values is patent US5684024A, “Pyrazole dimers compositions and methods for treating influenza” (priority 1996, dated 1997).

In assay [1] the target is influenza A/WSN virus transcriptase (Influenza A virus, UniProt P03427+P03430+P15659). Put plainly: biochemical. As to conditions: read-out: IC50, concentration required to achieve 50% inhibition of influenza A/WSN virus transcriptase activity.
A further assay deals with influenza A/WSN. Put plainly: Plaque reduction in MDCK cells, influenza A/WSN. To be noted: 48 h, read-out: IC50, […], A/WSN.
A further assay relates to influenza A/Victoria. Put plainly: Plaque reduction in MDCK cells, influenza A/Victoria. To be noted: 48 h, read-out: IC50, […], A/Victoria.

Experimental for influenza A/Victoria: Compounds were evaluated for antiviral activity against influenza A/WSN by plaque reduction in Madin Darby canine kidney (MDCK) cells. Duplicate monolayers of MDCK cells in 6 well plates were washed free of protein-containing media, infected with 50-100 plaque-forming units of virus (0.4 ml volume), and incubated at 37° C. for 60 min. After aspiration of the virus inoculum, a 0.6% agarose overlay (3 ml) containing Eagle minimal essential media, trypsin (8 μg/ml), and the appropriate drug dilution (final concentration of 1% DMSO) was added to the cell monolayer. Plates were incubated at 37° C. in a humidified atmosphere of 5% CO2 in air. After 48 h, monolayers were fixed with glutaraldehyde, stained with 0.1% crystal violet and the plaques were counted. The percentage of plaque inhibition relative to the infected control (no drug) plates were calculated for each drug concentration and the 50% inhibitory concentration (IC50) was determined.

For the compound `CC(=O)C1=NN(c2ccc(Cl)c(C(=O)O)c2)C(=O)C1=C1C(=O)N(c2ccc(Cl)c(C(=O)O)c2)N=C1C(C)=O` [Example 9], the IC50 in assay [1] is 250 nM.
The same measure, in the same setting: under `CC(=O)C1=NN(c2ccc(C(=O)O)c(Cl)c2)C(=O)C1=C1C(=O)N(c2ccc(C(=O)O)c(Cl)c2)N=C1C(C)=O` [Example 6] stands 800 nM.
In the case of `CC(=O)C1=NN(c2ccc(C(=O)O)cc2C)C(=O)C1=C1C(=O)N(c2ccc(C(=O)O)cc2C)N=C1C(C)=O` [Example 4, 3,3'-Bis[3-Methyl-4-(2-hydroxy-4-acetylpyrazolyl)-benzoic Acid]], the IC50 in assay [1] was 200 nM; in the assay with influenza A/WSN, 50000 nM; with influenza A/Victoria it was 25000 nM.
Taken in the same sequence, the figures for `CC(=O)C1=NN(c2ccc(C(=O)O)cc2)C(=O)C1=C1C(=O)N(c2ccc(C(=O)O)cc2)N=C1C(C)=O` [Example 7] were 500 nM, 50000 nM and 30000 nM.
Regarding `CC(=O)C1=NN(c2cc(C(=O)O)ccc2C)C(=O)C1=C1C(=O)N(c2cc(C(=O)O)ccc2C)N=C1C(C)=O` [Example 10], the IC50 in assay [1] stood at 350 nM.
Still for that read-out and setting: under `CC(=O)C1=NN(c2cccc(C(=O)O)c2)C(=O)C1=C1C(=O)N(c2cccc(C(=O)O)c2)N=C1C(C)=O` [Example 8] stands 350 nM.
Consider `COc1cc(C(=O)O)ccc1N1N=C(C(C)=O)C(=C2C(=O)N(c3ccc(C(=O)O)cc3OC)N=C2C(C)=O)C1=O` [Example 5], for which the IC50 in assay [1] was determined as 1200 nM.
